Test results: patent US20250034122A1, “SUBSTITUTED N-CYANOPYRROLIDINES WITH ACTIVITY AS USP30 INHIBITORS” (MISSION THERAPEUTICS LIMITED, priority 2021, published 2025)

What was measured:
[1] = target: USP30 (Homo sapiens (Human), UniProt Q70CQ3); test: USP30 biochemical IC50 assay (fluorescence polarisation); conditions: geomean; USP30 4 nM, 30 min pre-incubation, TAMRA-peptide-ubiquitin FP substrate
Description: Dilution plates were prepared at 21 times the final concentration (2100 μM for a final concentration of 100 μM) in 50% DMSO in a 96-well polypropylene V-bottom plate (Greiner #651201). A typical 8-point dilution series would be 100, 30, 10, 3, 1, 0.3, 0.1, 0.03 μM final. Reactions were performed in duplicate in black 384 well plates (small volume, Greiner 784076) in a final reaction volume of 21 μl.
Either lpl of 50% DMSO or diluted compound was added to the plate. USP30 (Boston Biochem #E582) was diluted in reaction buffer (40 mM Tris, pH 7.5, 0.005% Tween 20, 0.5 mg/ml BSA, 5 mM beta-mercaptoethanol) to achieve a final assay concentration of 4 nM, and 10 μl of diluted USP30 was added to the compound. Enzyme and compound were incubated for 30 min at room temp. Reactions were initiated by the addition of 50 nM of TAMRA labelled peptide linked to ubiquitin via an isopeptide bond as fluorescence polarisation substrate. Reactions were read immediately after addition of substrate and following a 2-hour incubation at room temperature. Readings were performed on a Pherastar Plus (BMG Labtech). λ Excitation 540 nm; λ Emission 590 nm.

[2] = tested on: TOM20 ubiquitylation; test: TOM20-ubiquitylation assay (western blot of cell lysates); format: cell-based, Human; conditions: antimycin A/oligomycin mitophagy trigger, concentration for 1.5-fold gain of TOM20-Ub
Description: TOM20-Ubiquitylation Assay Human cell lines can be challenged with mitochondrial depolarizing agents (ionophores (eg. CCCP, valinomycin), mitochondrial complex inhibitors (oligomycin, antimycin A)) to induce ubiquitylation of TOM20, which is then further promoted in the presence of USP30 inhibitors. TOM20 ubiquitylation is subsequently assessed through western blotting of the cell lysates, with TOM20 ubiquitylation adduct detection possible due to an 8 kDa molecule weight increase for each molecule of ubiquitin added, resulting in laddering of a TOM20 immunoreactive band. TOM20-ubiquitylation levels can be quantified using chemiluminescence densitometry of laddered immunoreactive bands.

Sequence of USP30 (Q70CQ3 57-517): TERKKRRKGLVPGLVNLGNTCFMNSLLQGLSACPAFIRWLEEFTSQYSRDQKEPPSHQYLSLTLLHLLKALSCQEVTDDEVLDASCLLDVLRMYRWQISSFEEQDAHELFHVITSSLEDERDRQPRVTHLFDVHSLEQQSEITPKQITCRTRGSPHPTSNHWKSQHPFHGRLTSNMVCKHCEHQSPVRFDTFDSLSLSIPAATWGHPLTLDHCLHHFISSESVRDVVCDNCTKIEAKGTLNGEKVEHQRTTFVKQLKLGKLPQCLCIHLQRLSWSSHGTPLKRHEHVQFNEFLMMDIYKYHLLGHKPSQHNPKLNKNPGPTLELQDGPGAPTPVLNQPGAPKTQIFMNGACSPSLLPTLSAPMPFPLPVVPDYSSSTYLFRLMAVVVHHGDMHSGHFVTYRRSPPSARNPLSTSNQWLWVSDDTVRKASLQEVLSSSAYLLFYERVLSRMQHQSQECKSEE

IC50 [1] [nM]	SMILES	EC1.5x (Geomean, nM); TOM20-Ub 1.5-fold gain [2] [nM]
5	N#CN1C[C@H](NC(=O)c2nnc(-c3cc(OC(F)(F)F)ccc3C3CC3)o2)C[C@H]1Cn1ccnn1 [Example 13, N-((3R,5S)-5-((1H-1,2,3-Triazol-1-yl)methyl)-1-cyanopyrrolidin-3-yl)-5-(2-cyclopropyl-5-(trifluoromethoxy)phenyl)-1,3,4-oxadiazole-2-carboxamide]	6
5	N#CN1C[C@H](NC(=O)c2nnc(-c3cc(OC(F)(F)F)ccc3C3CC3)o2)C[C@H]1Cn1cncn1 [Example 47, N-((3R,5S)-5-((1H-1,2,4-Triazol-1-yl)methyl)-1-cyanopyrrolidin-3-yl)-5-(2-cyclopropyl-5-(trifluoromethoxy)phenyl)-1,3,4-oxadiazole-2-carboxamide]	
7	N#CN1C[C@H](NC(=O)c2nnc(-c3cc(OC(F)(F)F)ccc3C3CC3)o2)C[C@H]1Cn1nccn1 [Example 45, N-((3R,5S)-5-((2H-1,2,3-Triazol-2-yl)methyl)-1-cyanopyrrolidin-3-yl)-5-(2-cyclopropyl-5-(trifluoromethoxy)phenyl)-1,3,4-oxadiazole-2-carboxamide]	
12	N#CN1C[C@H](NC(=O)c2nnc(-c3cccc(OC(F)(F)F)c3)o2)C[C@H]1Cn1ccnn1 [Example 43, N-((3R,5S)-5-((1H-1,2,3-Triazol-1-yl)methyl)-1-cyanopyrrolidin-3-yl)-5-(3-(trifluoromethoxy)phenyl)-1,3,4-oxadiazole-2-carboxamide]	
6	N#CN1C[C@H](NC(=O)c2nnc(-c3cc(OC(F)(F)F)ccc3Cl)o2)C[C@H]1Cn1ccnn1 [Example 42, N-((3R,5S)-5-((1H-1,2,3-Triazol-1-yl)methyl)-1-cyanopyrrolidin-3-yl)-5-(2-chloro-5-(trifluoromethoxy)phenyl)-1,3,4-oxadiazole-2-carboxamide]	
6	N#CN1C[C@H](NC(=O)c2nnc(-c3cc(OC(F)(F)F)ccc3C3CC3)o2)C[C@H]1Cn1cnnc1 [Example 49, N-((3R,5S)-5-((4H-1,2,4-Triazol-4-yl)methyl)-1-cyanopyrrolidin-3-yl)-5-(2-cyclopropyl-5-(trifluoromethoxy)phenyl)-1,3,4-oxadiazole-2-carboxamide]	
8	N#CN1C[C@H](NC(=O)c2nnc(-c3cc(OC(F)(F)F)ccc3OC3CC3)o2)C[C@H]1Cn1ccnn1 [Example 15, N-((3R,5S)-5-((1H-1,2,3-Triazol-1-yl)methyl)-1-cyanopyrrolidin-3-yl)-5-(2-cyclopropoxy-5-(trifluoromethoxy)phenyl)-1,3,4-oxadiazole-2-carboxamide]	
5	N#CN1C[C@H](NC(=O)c2nnc(-c3cc(OC(F)(F)F)ccc3C3CC3)o2)C[C@H]1Cn1cccn1 [Example 44, N-((3R,5S)-5-((1H-Pyrazol-1-yl)methyl)-1-cyanopyrrolidin-3-yl)-5-(2-cyclopropyl-5-(trifluoromethoxy)phenyl)-1,3,4-oxadiazole-2-carboxamide]	
5	CCCc1ccc(OC(F)(F)F)cc1-c1nnc(C(=O)N[C@@H]2C[C@@H](Cn3ccnn3)N(C#N)C2)o1 [Example 48, N-((3R,5S)-5-((1H-1,2,3-Triazol-1-yl)methyl)-1-cyanopyrrolidin-3-yl)-5-(2-propyl-5-(trifluoromethoxy)phenyl)-1,3,4-oxadiazole-2-carboxamide]	
5	N#CN1C[C@H](NC(=O)c2nc(-c3cc(OC(F)(F)F)ccc3C3CC3)no2)C[C@H]1Cn1ccnn1 [Example 50, N-((3R,5S)-5-((1H-1,2,3-Triazol-1-yl)methyl)-1-cyanopyrrolidin-3-yl)-3-(2-cyclopropyl-5-(trifluoromethoxy)phenyl)-1,2,4-oxadiazole-5-carboxamide]	

The remaining lines, values behind:

SMILES	IC50 [1] [nM]	EC1.5x (Geomean, nM); TOM20-Ub 1.5-fold gain [2] [nM]
N#Cc1ccc(C2CC2)c(-c2cnc(C(=O)N[C@@H]3C[C@@H](Cn4ccnn4)N(C#N)C3)o2)c1 [Example 9, N-((3R,5S)-5-((1H-1,2,3-Triazol-1-yl)methyl)-1-cyanopyrrolidin-3-yl)-5-(5-cyano-2-cyclopropylphenyl)oxazole-2-carboxamide]	2	
N#CN1C[C@H](NC(=O)c2ncc(-c3cccc(OC(F)(F)F)c3)o2)C[C@H]1Cn1cccn1 [Example 27, N-((3R,5S)-5-((1H-Pyrazol-1-yl)methyl)-1-cyanopyrrolidin-3-yl)-5-(3-(trifluoromethoxy)phenyl)oxazole-2-carboxamide]	9	
Cc1ccn(C[C@@H]2C[C@@H](NC(=O)c3ncc(-c4cccc(OC(F)(F)F)c4)o3)CN2C#N)n1 [Example 28, N-((3R,5S)-1-Cyano-5-((3-methyl-1H-pyrazol-1-yl)methyl)pyrrolidin-3-yl)-5-(3-(trifluoromethoxy)phenyl)oxazole-2-carboxamide]	10	
N#CN1C[C@H](NC(=O)c2noc(-c3cc(OC(F)(F)F)ccc3C3CC3)n2)C[C@H]1Cn1ccnn1 [Example 51, N-((3R,5S)-5-((1H-1,2,3-Triazol-1-yl)methyl)-1-cyanopyrrolidin-3-yl)-5-(2-cyclopropyl-5-(trifluoromethoxy)phenyl)-1,2,4-oxadiazole-3-carboxamide]	14	
N#Cc1cnc(N2CCC2)c(-c2nnc(C(=O)N[C@@H]3C[C@@H](Cn4ccnn4)N(C#N)C3)o2)c1 [Example 40, N-((3R,5S)-5-((1H-1,2,3-Triazol-1-yl)methyl)-1-cyanopyrrolidin-3-yl)-5-(2-(azetidin-1-yl)-5-cyanopyridin-3-yl)-1,3,4-oxadiazole-2-carboxamide]	12	
N#CN1C[C@H](NC(=O)c2ccc(-c3cccc4[nH]ncc34)nc2)C[C@H]1Cn1cccn1 [Example 52, N-((3R,5S)-5-((1H-Pyrazol-1-yl)methyl)-1-cyanopyrrolidin-3-yl)-6-(1H-indazol-4-yl)nicotinamide]	15	
CCc1cccc(-c2cnc(C(=O)N[C@@H]3C[C@@H](Cn4ccnn4)N(C#N)C3)o2)c1 [Example 11, N-((3R,5S)-5-((1H-1,2,3-Triazol-1-yl)methyl)-1-cyanopyrrolidin-3-yl)-5-(3-ethylphenyl)oxazole-2-carboxamide]	4	
N#Cc1ccc(C2CC2)c(-c2nnc(C(=O)N[C@@H]3C[C@@H](Cn4ccnn4)N(C#N)C3)o2)c1 [Example 14, N-((3R,5S)-5-((1H-1,2,3-Triazol-1-yl)methyl)-1-cyanopyrrolidin-3-yl)-5-(5-cyano-2-cyclopropylphenyl)-1,3,4-oxadiazole-2-carboxamide]	4	
N#CN1C[C@H](NC(=O)c2ncc(-c3ccc(F)c(OC(F)(F)F)c3)o2)C[C@H]1Cn1ccnn1 [Example 39, N-((3R,5S)-5-((1H-1,2,3-Triazol-1-yl)methyl)-1-cyanopyrrolidin-3-yl)-5-(4-fluoro-3-(trifluoromethoxy)phenyl)oxazole-2-carboxamide]	8	
Cn1ncc2cc(-c3ccc(C(=O)N[C@@H]4C[C@@H](Cn5ccnn5)N(C#N)C4)c(F)c3)ccc21 [Example 35, N-((3R,5S)-5-((1H-1,2,3-Triazol-1-yl)methyl)-1-cyanopyrrolidin-3-yl)-2-fluoro-4-(1-methyl-1H-indazol-5-yl)benzamide]	27	
Cn1ncc2cc(-c3ccc(C(=O)N[C@@H]4C[C@@H](Cn5cccn5)N(C#N)C4)c(F)c3)ccc21 [Example 34, N-((3R,5S)-5-((1H-Pyrazol-1-yl)methyl)-1-cyanopyrrolidin-3-yl)-2-fluoro-4-(1-methyl-1H-indazol-5-yl)benzamide]	44	
N#CN1C[C@H](NC(=O)N2CCC(c3cccc(OC(F)(F)F)c3)C2)C[C@H]1Cn1cccn1 (stereo partly drawn) [Example 36, N-((3R,5S)-5-((1H-Pyrazol-1-yl)methyl)-1-cyanopyrrolidin-3-yl)-3-(3-(trifluoromethoxy)phenyl) pyrrolidine-1-carboxamide]	100	
N#CN1C[C@H](NC(=O)N2CCC(c3cccc(OC(F)(F)F)c3)C2)C[C@H]1Cn1cccn1 (single isomer, unassigned) [Example 37]	120	
N#CN1C[C@H](NC(=O)c2ncc(-c3cccc(OC(F)(F)F)c3)o2)C[C@H]1Cn1ccnn1 [Example 4, N-((3R,5S)-5-((1H-1,2,3-Triazol-1-yl)methyl)-1-cyanopyrrolidin-3-yl)-5-(3-(trifluoromethoxy)phenyl)oxazole-2-carboxamide]	3	
N#Cc1cnc(N2CCCC2)c(-c2nnc(C(=O)N[C@@H]3C[C@@H](Cn4ccnn4)N(C#N)C3)o2)c1 [Example 41, N-((3R,5S)-5-((1H-1,2,3-Triazol-1-yl)methyl)-1-cyanopyrrolidin-3-yl)-5-(5-cyano-2-(pyrrolidin-1-yl)pyridin-3-yl)-1,3,4-oxadiazole-2-carboxamide]	9	
N#CN1C[C@H](NC(=O)N2CCC(c3cccc(OC(F)(F)F)c3)C2)C[C@H]1Cn1cccn1 (stereo partly drawn) [Example 38]	210	
N#Cc1cccc(-c2cnc(C(=O)N[C@@H]3C[C@@H](Cn4cnnc4)N(C#N)C3)o2)c1 [Example 19, N-((3R,5S)-5-((4H-1,2,4-Triazol-4-yl)methyl)-1-cyanopyrrolidin-3-yl)-5-(3-cyanophenyl)oxazole-2-carboxamide]	2	
N#CN1C[C@H](NC(=O)c2cc(-c3cccc(OC(F)(F)F)c3)ccn2)C[C@H]1Cn1ccnn1 [Example 25, N-((3R,5S)-5-((1H-1,2,3-Triazol-1-yl)methyl)-1-cyanopyrrolidin-3-yl)-4-(3-(trifluoromethoxy)phenyl)picolinamide]	9	
Cc1ccnn1C[C@@H]1C[C@@H](NC(=O)c2ncc(-c3cccc(OC(F)(F)F)c3)o2)CN1C#N [Example 29, N-((3R,5S)-1-Cyano-5-((5-methyl-1H-pyrazol-1-yl)methyl)pyrrolidin-3-yl)-5-(3-(trifluoromethoxy)phenyl)oxazole-2-carboxamide]	55	
